The source of these data is patent US20100152188A1, “Novel Heterocyclic Compounds” (priority 2005, published 2010).

Like-named read-outs stand apart in the source and are kept apart here. Bounds are passed on as bounds.

Experiment [1] has as its system NCIH460, HCT116, MDAMB-231/U 251. The experiment is described as follows: Anti-cancer screen, mean GI50 over the cell lines. The format is cell-based. Conditions: in µM. Summed up: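 HCT116, NCIH460 and U251 cells (5000/well) were seeded for 24 h, then exposed in triplicate to 0.01, 0.1, 1, 10 and 100 µM final compound for 48 h. Viability was read by MTT (3 h, absorbance 570 nm), and percent growth was calculated against untreated controls and a T0 plate read at compound addition.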

For a further experiment, the system named is HDAC. The experiment is described as follows: HDAC inhibition. The format is biochemical. Conditions: for HDAC Inhibition 1 μM: compound at 1 μM; for HDAC Inhibition 10 μM: compound at 10 μM.
A further experiment concerns MDAMB-231/U 251. The experiment is described as follows: Anti-cancer screen (MTT), MDAMB-231/U 251. The format is cell-based. Conditions: for CC50: read-out: MDAMB-231/U 251 LC50. Summed up:
(§1)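 Cells plated at 5000/well in DMEM with 10% FBS, then treated 48 h with compound at 0.01, 0.1, 1, 10 and 100 μM in triplicate. MTT for 3 h, formazan in DMSO, absorbance at 570 nm. GI50, TGI and LC50 from % growth relative to control and time-zero wells.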

Another experiment concerns HCT116. The experiment in a line: Anti-cancer screen (MTT), HCT116. The format is cell-based. Conditions: Homo sapiens, HCT-116, 48 hours with compound, tested at 0.01-100 µM; for CC50: read-out: HCT116 LC50. Summed up: as §1
The subject of a further experiment is NCIH460. The experiment is described as follows: Anti-cancer screen (MTT), NCIH460. The format is cell-based. Conditions: Homo sapiens, NCI-H460, 48 hours with compound, tested at 0.01-100 µM. An outline of the steps: as §1
The mark [2] stands for this setting: 48 hours with compound, MTT, tested at 0.01-100 µM.

In the case of `O=C(Cc1csc(NC(=O)OCc2ccc(Br)s2)n1)NO` [Example 6, (5-Bromo-2-thienyl)methyl{4-[2-(hydroxyamino)-2-oxoethyl]-1,3-thiazol-2-yl}carbamate], the “Mean GI50” value in experiment [1] worked out at 24. Moreover, in the experiment with HDAC, the “HDAC Inhibition 1 μM” value is listed as 8.8 and the “HDAC Inhibition 10 μM” value was 47.27. In addition, in the experiment on MDAMB-231/U 251 (setting [2]), the GI50 (as a rule, the concentration that inhibits growth by half) came to 5 µM; the IC (TGI) worked out at 82 µM; the CC50 is greater than 100 µM. In addition, in the experiment on HCT116, the GI50 came to 65 µM, the IC (TGI) was greater than 100 µM and the CC50 is greater than 100 µM. Also, in the experiment with NCIH460, the GI50 stood at 2 µM, the IC (TGI) came out at 80 µM and the LC50 (usually the concentration that kills 50% of the test population) is greater than 100 µM.

Turning to `O=C(Cc1csc(NC(=O)OCc2cc(Br)cs2)n1)NO` [Example 7, (4-Bromo-2-thienyl)methyl{4-[2-(hydroxyamino)-2-oxoethyl]-1,3-thiazol-2-yl}carbamate], the “Mean GI50” value in experiment [1] is reported as 16.7. Also, in the experiment on HDAC, the “HDAC Inhibition 1 μM” value turned out to be 7.07 and the “HDAC Inhibition 10 μM” value stood at 46.41. In addition, in the experiment on MDAMB-231/U 251 (setting [2]), the GI50 stood at 15 µM, the IC (TGI) amounted to 74 µM and the CC50 is greater than 100 µM. In the experiment on HCT116, the GI50 is 25 µM, the IC (TGI) turned out to be 80 µM and the CC50 is greater than 100 µM. In addition, in the experiment on NCIH460, the GI50 was 10 µM, the IC (TGI) was determined as 70 µM and the LC50 was greater than 100 µM.

Take `Cc1ncsc1COC(=O)Nc1nc(CC(=O)NO)cs1` [Example 8, (4-Methyl-1,3-thiazol-5-yl)methyl{4-[2-(hydroxyamino)-2-oxoethyl]-1,3-thiazol-2-yl}carbamate]: the “Mean GI50” value in experiment [1] was greater than 100. Further, in the experiment with HDAC, the “HDAC Inhibition 1 μM” value was determined as 0.96 and the “HDAC Inhibition 10 μM” value is 17.80. Further, in the experiment with MDAMB-231/U 251 (setting [2]), the concentration for 50% growth inhibition (GI50) was 0.5 µM, the IC (TGI) is greater than 100 µM and the CC50 was greater than 100 µM. For the same compound, in the experiment on HCT116, the GI50 is greater than 100 µM, the IC (TGI) is greater than 100 µM and the CC50 was greater than 100 µM. For the same compound, in the experiment on NCIH460, the GI50 is greater than 100 µM, the IC (TGI) is greater than 100 µM and the LC50 is greater than 100 µM.

Take `O=C(Cc1csc(NC(=O)OCc2nc3ccccc3s2)n1)NO` [Example 9, 1,3-Benzothiazol-2-ylmethyl{4-[2-(hydroxyamino)-2-oxoethyl]-1,3-thiazol-2-yl}carbamate]: the “Mean GI50” value in experiment [1] is reported as 53. Also, in the experiment with HDAC, the “HDAC Inhibition 1 μM” value is reported as 17.52 and the “HDAC Inhibition 10 μM” value is 46.21. Besides, the CC50 in the experiment with MDAMB-231/U 251 (48 h) is greater than 100 µM. In addition, in the experiment on MDAMB-231/U 251 (setting [2]), the GI50 turned out to be 38 µM and the IC (TGI) was greater than 100 µM. In the experiment with HCT116, the GI50 turned out to be 48 µM, the IC (TGI) was greater than 100 µM and the LC50 (concentration giving 50% net cell kill relative to T0) is greater than 100 µM. Moreover, in the experiment with NCIH460, the GI50 was found to be 73 µM, the IC (TGI) is greater than 100 µM and the LC50 is greater than 100 µM.

For `O=C(Nc1nc(CC(=O)N2CCOCC2)cs1)OCc1cccnc1` [Example 10, pyridin-3-ylmethyl[4-(2-morpholin-4-yl-2-oxoethyl)-1,3-thiazol-2-yl]carbamate], in experiment [1], the “Mean GI50” value amounted to 26.7. Besides, in the experiment with HDAC, the “HDAC Inhibition 1 μM” value was −9.85 and the “HDAC Inhibition 10 μM” value worked out at 0.14. Also, the CC50 in the experiment on MDAMB-231/U 251 (48 h) is greater than 100 µM. Further, in the experiment on MDAMB-231/U 251 (setting [2]), the GI50 amounted to 0.4 µM and the IC (TGI) was found to be 27 µM. In the experiment with HCT116, the GI50 is greater than 100 µM, the IC (TGI) was greater than 100 µM and the LC50 (concentration giving 50% net cell kill relative to T0) is greater than 100 µM. Further, in the experiment on NCIH460, the GI50 worked out at 55 µM, the IC (TGI) was greater than 100 µM and the LC50 was greater than 100 µM.
